Test results reported in the supplement of paper PMC10307832.

Columns and labels:
Assay in all cases: relative viability (nuclei count vs DMSO), 5 days (fraction); higher = more cells survive
[1] = compound: CCc1cnn2c(NCc3ccc[n+]([O-])c3)cc(N3CCCC[C@H]3CCO)nc12 [Dinaciclib] + CC(=O)Nc1cccc(-n2c(=O)n(C3CC3)c(=O)c3c(Nc4ccc(I)cc4F)n(C)c(=O)c(C)c32)c1 [Trametinib] (partner 0.02 µM)
Procedure, shortened: (§1)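 Relative viability is defined as nuclei in treated wells over nuclei in vehicle wells. Duplicate plates were run and medians reported. Lung cancer cell lines in 1536-well plates were dosed by pin tool one day after seeding, with one drug or with a fixed anchor-drug dose plus five library-drug doses (not always all listed) in √10 steps, and nuclei were counted after 5 days.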

[2] = compound: CCc1cnn2c(NCc3ccc[n+]([O-])c3)cc(N3CCCC[C@H]3CCO)nc12 [Dinaciclib] + CS(=O)(=O)N1CCN(Cc2cc3nc(-c4cccc5[nH]ncc45)nc(N4CCOCC4)c3s2)CC1 [Pictilisib] (partner 1 µM)
Procedure, shortened: as §1

[3] = compound: CCc1cnn2c(NCc3ccc[n+]([O-])c3)cc(N3CCCC[C@H]3CCO)nc12 [Dinaciclib] + C[C@@H](Oc1cc(-c2cnn(C3CCNCC3)c2)cnc1N)c1c(Cl)ccc(F)c1Cl [Crizotinib] (partner 1 µM)
Procedure, shortened: as §1

[4] = compound: CCc1cnn2c(NCc3ccc[n+]([O-])c3)cc(N3CCCC[C@H]3CCO)nc12 [Dinaciclib] + NC(=O)Nc1cc(-c2cccc(F)c2)sc1C(=O)N[C@H]1CCCNC1 [AZD7762] (partner 0.2 µM)
Procedure, shortened: as §1

[5] = compound: CCc1cnn2c(NCc3ccc[n+]([O-])c3)cc(N3CCCC[C@H]3CCO)nc12 [Dinaciclib] + O=C(c1cc(Cc2n[nH]c(=O)c3ccccc23)ccc1F)N1CCN(C(=O)C2CC2)CC1 [Olaparib] (partner 8 µM)
Procedure, shortened: as §1

Cell Line | relative viability ([1]; first compound 0.009487 µM) | relative viability ([1]; first compound 0.03 µM) | relative viability ([1]; first compound 0.09487 µM) | relative viability ([1]; first compound 0.3 µM) | relative viability ([2]; first compound 0.009487 µM) | relative viability ([2]; first compound 0.03 µM) | relative viability ([2]; first compound 0.09487 µM) | relative viability ([2]; first compound 0.3 µM) | relative viability ([3]; first compound 0.009487 µM) | relative viability ([3]; first compound 0.03 µM) | relative viability ([3]; first compound 0.09487 µM) | relative viability ([3]; first compound 0.3 µM) | relative viability ([4]; first compound 0.009487 µM) | relative viability ([4]; first compound 0.03 µM) | relative viability ([4]; first compound 0.09487 µM) | relative viability ([4]; first compound 0.3 µM) | relative viability ([5]; first compound 0.009487 µM) | relative viability ([5]; first compound 0.03 µM) | relative viability ([5]; first compound 0.09487 µM) | relative viability ([5]; first compound 0.3 µM)
NCI-H1792 | 0.432 | 0.361 | 0.0776 | 0.0462 | 0.234 | 0.121 | 0.0539 | 0.0574 | 0.994 | 0.747 | 0.184 | 0.0753 | 0.585 | 0.0463 | 0.032 | 0.0288 | 0.425 | 0.185 | 0.0516 | 0.0374
NCI-H1437 | 0.403 | 0.212 | 0.134 | 0.135 | 0.378 | 0.0843 | 0.0843 | 0.0936 | 0.918 | 0.41 | 0.0916 | 0.0807 | 1.12 | 0.16 | 0.182 | 0.163 | 0.418 | 0.159 | 0.138 | 0.158
HOP-62 | 0.492 | 0.361 | 0.0804 | 0.0808 | 0.583 | 0.092 | 0.0651 | 0.0405 | 0.841 | 0.236 | 0.0602 | 0.0489 | 0.706 | 0.225 | 0.0545 | 0.068 | 0.295 | 0.0722 | 0.0964 | 0.0667
EPLC-272H | 0.223 | 0.0654 | 0.0408 | 0.056 | 0.218 | 0.0536 | 0.0465 | 0.046 | 0.853 | 0.484 | 0.0554 | 0.0387 | 0.444 | 0.0986 | 0.0404 | 0.0369 | 0.274 | 0.0455 | 0.0344 | 0.036
HCC-366 | 0.274 | 0.0898 | 0.0214 | 0.0233 | 0.196 | 0.0396 | 0.0372 | 0.044 | 0.358 | 0.0242 | 0.0111 | 0.0131 | 0.406 | 0.0244 | 0.0268 | 0.0232 | 0.174 | 0.032 | 0.0277 | 0.0241
HCC-44 | 1.13 | 0.846 | 0.343 | 0.339 | 0.711 | 0.248 | 0.122 | 0.129 | 0.741 | 0.133 | 0.118 | 0.112 | 0.999 | 1.05 | 0.351 | 0.327 | 1.07 | 0.556 | 0.361 | 0.272
NCI-H23 | 0.305 | 0.164 | 0.13 | 0.122 | 0.41 | 0.148 | 0.126 | 0.145 | 0.47 | 0.171 | 0.107 | 0.0907 | 0.246 | 0.125 | 0.107 | 0.0921 | 0.206 | 0.12 | 0.0827 | 0.101
NCI-H727 | 0.39 | 0.324 | 0.324 | 0.392 | 0.297 | 0.173 | 0.196 | 0.134 | 0.534 | 0.171 | 0.174 | 0.183 | 0.716 | 0.413 | 0.356 | 0.34 | 0.782 | 0.314 | 0.351 | 0.328
NCI-H1355 | 0.457 | 0.349 | 0.173 | 0.14 | 0.476 | 0.146 | 0.0972 | 0.133 | 1.17 | 0.762 | 0.185 | 0.141 | 1.02 | 0.869 | 0.267 | 0.127 | 0.755 | 0.487 | 0.133 | 0.141
NCI-H1944 | 0.462 | 0.161 | 0.152 | 0.144 | 0.4 | 0.172 | 0.168 | 0.177 | 1.14 | 0.143 | 0.136 | 0.126 | 0.745 | 0.0989 | 0.128 | 0.135 | 0.395 | 0.126 | 0.182 | 0.108
NCI-H2087 | 0.143 | 0.11 | 0.101 | 0.107 | 0.643 | 0.143 | 0.165 | 0.151 | 1.3 | 0.136 | 0.128 | 0.13 | 1.44 | 0.108 | 0.127 | 0.123 | 0.639 | 0.0883 | 0.0953 | 0.112
NCI-H838 | 0.315 | 0.127 | 0.0741 | 0.0706 | 0.28 | 0.117 | 0.111 | 0.101 | 0.791 | 0.182 | 0.0924 | 0.0905 | 0.993 | 0.601 | 0.622 | 0.553 | 0.431 | 0.101 | 0.0853 | 0.0924
LC-2-ad | 0.921 | 0.405 | 0.148 | 0.15 | 0.305 | 0.071 | 0.0698 | 0.0506 | 0.441 | 0.119 | 0.109 | 0.116 | 0.87 | 0.118 | 0.11 | 0.128 | 0.495 | 0.162 | 0.13 | 0.133
HCC-78 | 0.631 | 0.402 | 0.229 | 0.183 | 0.197 | 0.226 | 0.105 | 0.11 | 0.352 | 0.181 | 0.108 | 0.137 | 0.941 | 0.637 | 0.226 | 0.209 | 0.713 | 0.198 | 0.168 | 0.202
LOU-NH91 | 0.756 | 0.405 | 0.281 | 0.264 | 0.507 | 0.288 | 0.254 | 0.229 | 0.738 | 0.348 | 0.29 | 0.267 | 0.7 | 0.296 | 0.252 | 0.272 | 0.861 | 0.269 | 0.239 | 0.234
